Measurements from patent US20100298141A1, “SUBSTITUTED PYRIDINE N-OXIDE HERBICIDES” (E. I. DU PONT DE NEMOURS AND COMPANY, priority 2007, published 2010).

Assays:
morningglory = test: Test A pre-/postemergence greenhouse test; format: in vivo, Ipomoea spp.; details: for Morningglory plant response rating: 0 to 100 scale; for Plant response rating, Morningglory: 0 to 100 scale where 0 is no effect and 100 is complete control
Summary of the method: (§1)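 Seeds sown in a loam soil–sand blend got a preemergence directed soil spray of compound in a non-phytotoxic solvent mixture containing surfactant. Postemergence sprays of the same formulation went at the same time onto plants 2–10 cm tall at the one- to two-leaf stage. Injury was scored visually against untreated controls after about ten days in the greenhouse.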

redroot pigweed = test: Test A pre-/postemergence greenhouse test; format: in vivo, Amaranthus retroflexus; details: for Pigweed plant response rating: 0 to 100 scale; for Plant response rating, Pigweed: 0 to 100 scale where 0 is no effect and 100 is complete control
Summary of the method: as §1

umbrella sedge = test: Test C flooded paddy test; format: in vivo, Cyperus difformis; details: Flood
Summary of the method: (§2)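 In-water treatment: compound dosed into 3 cm flood over soil, water level unchanged throughout. Controls run alongside; visual assessment at day 13–15.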

corn = test: Test A pre-/postemergence greenhouse test; format: in vivo, Zea mays; details: for Corn plant response rating: 0 to 100 scale; for Plant response rating, Corn: 0 to 100 scale where 0 is no effect and 100 is complete control
Summary of the method: as §1

barnyardgrass [1] = test: Test C flooded paddy test; format: in vivo, Echinochloa crus-galli; details: Flood
Summary of the method: as §2

rice = test: Test C flooded paddy test; format: in vivo, Oryza sativa; details: Flood
Summary of the method: as §2

barnyardgrass [2] = test: Test A pre-/postemergence greenhouse test; format: in vivo, Echinochloa crus-galli; details: for Barnyardgrass plant response rating: 0 to 100 scale; for Plant response rating, Barnyardgrass: 0 to 100 scale where 0 is no effect and 100 is complete control
Summary of the method: as §1

velvetleaf = test: Test A pre-/postemergence greenhouse test; format: in vivo, Abutilon theophrasti; details: for Velvetleaf plant response rating: 0 to 100 scale; for Plant response rating, Velvetleaf: 0 to 100 scale where 0 is no effect and 100 is complete control
Summary of the method: as §1

wheat = test: Test A pre-/postemergence greenhouse test; format: in vivo, Triticum aestivum; details: for Wheat plant response rating: 0 to 100 scale; for Plant response rating, Wheat: 0 to 100 scale where 0 is no effect and 100 is complete control
Summary of the method: as §1

crabgrass = test: Test A pre-/postemergence greenhouse test; format: in vivo, Digitaria sanguinalis; details: for Crabgrass, Large plant response rating: 0 to 100 scale; for Plant response rating, Crabgrass, Large: 0 to 100 scale where 0 is no effect and 100 is complete control
Summary of the method: as §1

giant foxtail = test: Test A pre-/postemergence greenhouse test; format: in vivo, Setaria faberi; details: for Foxtail, Giant plant response rating: 0 to 100 scale; for Plant response rating, Foxtail, Giant: 0 to 100 scale where 0 is no effect and 100 is complete control
Summary of the method: as §1

duck salad = test: Test C flooded paddy test; format: in vivo, Heteranthera limosa; details: Flood
Summary of the method: as §2

[3] = Postemergence, 125 g ai/ha, 0 is no effect, 100 is complete control
[4] = Postemergence, 500 g ai/ha, 0 is no effect, 100 is complete control
[5] = Preemergence, 125 g ai/ha, 0 no effect, 100 complete control
[6] = 31 g ai/ha, scale 0 to 100 (0 no effect, 100 complete control)
[7] = 62 g ai/ha, scale 0 to 100, 0 no effect, 100 complete control, 13 to 15 days
[8] = 125 g ai/ha, scale 0 to 100, 0 no effect, 100 complete control, 13 to 15 days
[9] = 250 g ai/ha, scale 0 to 100, 0 no effect, 100 complete control, 13 to 15 days
[10] = 250 g ai/ha, scale 0 to 100 (0 no effect, 100 complete control)
[11] = 62 g ai/ha, scale 0 to 100 (0 no effect, 100 complete control)
[12] = Preemergence, 500 g ai/ha, 0 no effect, 100 complete control

Cn1nc(C(F)(F)F)c(CS(=O)(=O)c2cc(Cl)cc[n+]2[O-])c1Cl [Compound 38]
0: Morningglory plant response rating (morningglory; [3]) | Morningglory plant response rating (morningglory; [4]) | Morningglory plant response rating (morningglory; [5]) | Plant response rating, Morningglory (morningglory; Preemergence, 500 g ai/ha) | Pigweed plant response rating (redroot pigweed; [3]) | Pigweed plant response rating (redroot pigweed; [4]) | Pigweed plant response rating (redroot pigweed; [5]) | Plant response rating, Pigweed (redroot pigweed; Preemergence, 500 g ai/ha) | Plant response rating, Sedge, Umbrella (umbrella sedge; [6]) | Plant response rating, Sedge, Umbrella (umbrella sedge; [7]) | Plant response rating, Sedge, Umbrella (umbrella sedge; [8]) | Plant response rating, Sedge, Umbrella (umbrella sedge; [9]) | Corn plant response rating (corn; [3]) | Corn plant response rating (corn; [4]) | Corn plant response rating (corn; [5]) | Plant response rating, Corn (corn; Preemergence, 500 g ai/ha) | Plant response rating, Barnyardgrass (barnyardgrass [1]; [6]) | Plant response rating, Barnyardgrass (barnyardgrass [1]; [7]) | Plant response rating, Barnyardgrass (barnyardgrass [1]; [8]) | Plant response rating, Barnyardgrass (barnyardgrass [1]; [9]) | Plant response rating, Rice (rice; [6]) | Plant response rating, Rice (rice; [7]) | Plant response rating, Rice (rice; [8]) | Plant response rating, Rice (rice; [9]) | Barnyardgrass plant response rating (barnyardgrass [2]; [3]) | Barnyardgrass plant response rating (barnyardgrass [2]; [4]) | Velvetleaf plant response rating (velvetleaf; [3]) | Velvetleaf plant response rating (velvetleaf; [4]) | Velvetleaf plant response rating (velvetleaf; [5]) | Plant response rating, Velvetleaf (velvetleaf; Preemergence, 500 g ai/ha) | Wheat plant response rating (wheat; [3]) | Wheat plant response rating (wheat; [4]) | Wheat plant response rating (wheat; [5]) | Plant response rating, Wheat (wheat; Preemergence, 500 g ai/ha) | Crabgrass, Large plant response rating (crabgrass; [3]) | Crabgrass, Large plant response rating (crabgrass; [4]) | Crabgrass, Large plant response rating (crabgrass; [5]) | Plant response rating, Crabgrass, Large (crabgrass; Preemergence, 500 g ai/ha) | Foxtail, Giant plant response rating (giant foxtail; [3]) | Foxtail, Giant plant response rating (giant foxtail; [4]) | Foxtail, Giant plant response rating (giant foxtail; [5]) | Plant response rating, Ducksalad (duck salad; [6]) | Plant response rating, Ducksalad (duck salad; [7]) | Plant response rating, Ducksalad (duck salad; [8]) | Plant response rating, Ducksalad (duck salad; [9])
30: Barnyardgrass plant response rating (barnyardgrass [2]; [5]) | Plant response rating, Foxtail, Giant (giant foxtail; Preemergence, 500 g ai/ha)
60: Plant response rating, Barnyardgrass (barnyardgrass [2]; Preemergence, 500 g ai/ha)

Cn1nc(C(F)(F)F)c(CS(=O)(=O)c2ccc(Br)c[n+]2[O-])c1OC(F)F [Compound 13]
65: Plant response rating, Rice (rice; [8])
85: Plant response rating, Rice (rice; [10])
0: Morningglory plant response rating (morningglory; [3]) | Morningglory plant response rating (morningglory; [4]) | Morningglory plant response rating (morningglory; [5]) | Plant response rating, Morningglory (morningglory; Preemergence, 500 g ai/ha) | Pigweed plant response rating (redroot pigweed; [3]) | Pigweed plant response rating (redroot pigweed; [4]) | Plant response rating, Sedge, Umbrella (umbrella sedge; [6]) | Plant response rating, Sedge, Umbrella (umbrella sedge; [7]) | Corn plant response rating (corn; [3]) | Corn plant response rating (corn; [4]) | Corn plant response rating (corn; [5]) | Plant response rating, Corn (corn; Preemergence, 500 g ai/ha) | Plant response rating, Barnyardgrass (barnyardgrass [1]; [6]) | Plant response rating, Barnyardgrass (barnyardgrass [1]; [7]) | Plant response rating, Rice (rice; [6]) | Barnyardgrass plant response rating (barnyardgrass [2]; [3]) | Barnyardgrass plant response rating (barnyardgrass [2]; [4]) | Velvetleaf plant response rating (velvetleaf; [3]) | Velvetleaf plant response rating (velvetleaf; [4]) | Velvetleaf plant response rating (velvetleaf; [5]) | Plant response rating, Velvetleaf (velvetleaf; Preemergence, 500 g ai/ha) | Wheat plant response rating (wheat; [3]) | Wheat plant response rating (wheat; [4]) | Wheat plant response rating (wheat; [5]) | Plant response rating, Wheat (wheat; Preemergence, 500 g ai/ha) | Crabgrass, Large plant response rating (crabgrass; [3]) | Foxtail, Giant plant response rating (giant foxtail; [3]) | Plant response rating, Ducksalad (duck salad; [6]) | Plant response rating, Ducksalad (duck salad; [7]) | Plant response rating, Ducksalad (duck salad; [8])
20: Plant response rating, Sedge, Umbrella (umbrella sedge; [8]) | Plant response rating, Barnyardgrass (barnyardgrass [1]; [8])
50: Plant response rating, Rice (rice; [7]) | Barnyardgrass plant response rating (barnyardgrass [2]; [5]) | Foxtail, Giant plant response rating (giant foxtail; [5])
90: Plant response rating, Barnyardgrass (barnyardgrass [2]; Preemergence, 500 g ai/ha)
10: Foxtail, Giant plant response rating (giant foxtail; [4])
70: Plant response rating, Foxtail, Giant (giant foxtail; Preemergence, 500 g ai/ha)
100: Plant response rating, Sedge, Umbrella (umbrella sedge; [10])
80: Plant response rating, Barnyardgrass (barnyardgrass [1]; [10]) | Plant response rating, Crabgrass, Large (crabgrass; Preemergence, 500 g ai/ha)
30: Crabgrass, Large plant response rating (crabgrass; [4])
95: Plant response rating, Ducksalad (duck salad; [10])
40: Crabgrass, Large plant response rating (crabgrass; [5])

Cn1nc(OC(F)F)c(C[S+]([O-])c2cccc[n+]2[O-])c1C(F)(F)F (stereo not drawn) [Compound 74]
65: Plant response rating, Ducksalad (duck salad; [9])
50: Plant response rating, Pigweed (redroot pigweed; Postemergence, 125 g ai/ha) | Plant response rating, Sedge, Umbrella (umbrella sedge; [9]) | Plant response rating, Barnyardgrass (barnyardgrass [2]; Postemergence, 125 g ai/ha)
15: Plant response rating, Barnyardgrass (barnyardgrass [1]; [11])
0: Plant response rating, Sedge, Umbrella (umbrella sedge; [11]) | Plant response rating, Corn (corn; Postemergence, 125 g ai/ha) | Corn plant response rating (corn; [5]) | Velvetleaf plant response rating (velvetleaf; [5]) | Wheat plant response rating (wheat; [5])
70: Plant response rating, Pigweed (redroot pigweed; Preemergence, 500 g ai/ha) | Barnyardgrass plant response rating (barnyardgrass [2]; [5]) | Velvetleaf plant response rating (velvetleaf; [4]) | Plant response rating, Ducksalad (duck salad; [11])
30: Plant response rating, Barnyardgrass (barnyardgrass [1]; [9])
90: Plant response rating, Morningglory (morningglory; Preemergence, 500 g ai/ha) | Plant response rating, Barnyardgrass (barnyardgrass [2]; Preemergence, 500 g ai/ha) | Plant response rating, Wheat (wheat; Preemergence, 500 g ai/ha) | Plant response rating, Crabgrass, Large (crabgrass; Preemergence, 500 g ai/ha) | Foxtail, Giant plant response rating (giant foxtail; [4]) | Plant response rating, Foxtail, Giant (giant foxtail; Preemergence, 500 g ai/ha)
40: Plant response rating, Morningglory (morningglory; Postemergence, 125 g ai/ha) | Plant response rating, Crabgrass, Large (crabgrass; Postemergence, 125 g ai/ha)
80: Morningglory plant response rating (morningglory; [4]) | Plant response rating, Corn (corn; Preemergence, 500 g ai/ha) | Barnyardgrass plant response rating (barnyardgrass [2]; [4]) | Crabgrass, Large plant response rating (crabgrass; [4]) | Foxtail, Giant plant response rating (giant foxtail; [5])
10: Plant response rating, Rice (rice; [11]) | Plant response rating, Rice (rice; [9])
60: Pigweed plant response rating (redroot pigweed; [4]) | Pigweed plant response rating (redroot pigweed; [5]) | Corn plant response rating (corn; [4]) | Plant response rating, Velvetleaf (velvetleaf; Preemergence, 500 g ai/ha) | Wheat plant response rating (wheat; [4]) | Crabgrass, Large plant response rating (crabgrass; [5]) | Plant response rating, Foxtail, Giant (giant foxtail; Postemergence, 125 g ai/ha)
20: Morningglory plant response rating (morningglory; [5]) | Plant response rating, Velvetleaf (velvetleaf; Postemergence, 125 g ai/ha) | Plant response rating, Wheat (wheat; Postemergence, 125 g ai/ha)

Cn1nc(C(F)(F)F)c(CS(=O)(=O)c2ccc(Cl)c[n+]2[O-])c1OCC(F)(F)C(F)(F)F [Compound 97]
30: Pigweed plant response rating (redroot pigweed; [5]) | Plant response rating, Pigweed (redroot pigweed; Preemergence, 500 g ai/ha) | Plant response rating, Rice (rice; [9]) | Velvetleaf plant response rating (velvetleaf; [4]) | Wheat plant response rating (wheat; [4]) | Plant response rating, Foxtail, Giant (giant foxtail; Postemergence, 125 g ai/ha)
80: Plant response rating, Foxtail, Giant (giant foxtail; Preemergence, 500 g ai/ha)
60: Crabgrass, Large plant response rating (crabgrass; [4])
70: Barnyardgrass plant response rating (barnyardgrass [2]; [4]) | Plant response rating, Crabgrass, Large (crabgrass; Preemergence, 500 g ai/ha) | Foxtail, Giant plant response rating (giant foxtail; [4]) | Foxtail, Giant plant response rating (giant foxtail; [5])
90: Plant response rating, Barnyardgrass (barnyardgrass [2]; Preemergence, 500 g ai/ha)
0: Plant response rating, Morningglory (morningglory; Postemergence, 125 g ai/ha) | Morningglory plant response rating (morningglory; [4]) | Morningglory plant response rating (morningglory; [5]) | Plant response rating, Pigweed (redroot pigweed; Postemergence, 125 g ai/ha) | Plant response rating, Sedge, Umbrella (umbrella sedge; [11]) | Plant response rating, Sedge, Umbrella (umbrella sedge; [9]) | Plant response rating, Corn (corn; Postemergence, 125 g ai/ha) | Corn plant response rating (corn; [4]) | Corn plant response rating (corn; [5]) | Plant response rating, Corn (corn; Preemergence, 500 g ai/ha) | Plant response rating, Barnyardgrass (barnyardgrass [1]; [11]) | Plant response rating, Barnyardgrass (barnyardgrass [1]; [9]) | Plant response rating, Rice (rice; [11]) | Plant response rating, Velvetleaf (velvetleaf; Postemergence, 125 g ai/ha) | Velvetleaf plant response rating (velvetleaf; [5]) | Velvetleaf plant response rating (velvetleaf; [12]) | Plant response rating, Wheat (wheat; Postemergence, 125 g ai/ha) | Wheat plant response rating (wheat; [5]) | Wheat plant response rating (wheat; [12]) | Plant response rating, Ducksalad (duck salad; [11])
10: Barnyardgrass plant response rating (barnyardgrass [2]; [5])
20: Plant response rating, Morningglory (morningglory; Preemergence, 500 g ai/ha) | Pigweed plant response rating (redroot pigweed; [4]) | Plant response rating, Barnyardgrass (barnyardgrass [2]; Postemergence, 125 g ai/ha) | Plant response rating, Crabgrass, Large (crabgrass; Postemergence, 125 g ai/ha) | Crabgrass, Large plant response rating (crabgrass; [5])
40: Plant response rating, Ducksalad (duck salad; [9])
